Assay [1] deals with BCL-2. As to the kind of experiment: Native electrospray mass spectrometry, BCL-2. It is filed as binding. Conditions: 10 µM DNA, 20 µM ligand; for Bound DNA (%) BCL-2: 100 mM ammonium acetate. How it is done: (§1) These parameters ensured a good signal intensity without disrupting noncovalent complexes, which was verified using d[G4T4G4]2 as a control. Oligonucleotides were purchased lyophilized, and RP-cartridge purified from Eurogentec (Kanaka Eurogentec, Seraing, Belgium), then buffer exchanged with ammonium acetate (5 M; Sigma-Aldrich, Saint-Quentin-Fallavier, France) using Amicon Ultra (3 K cut-off; Merck Millipore, Cork, Ireland). Sample solutions were prepared by diluting the proper volume of oligonucleotide stock solutions to reach 10 µM of DNA and 20 µM of ligand, in 100 mM ammonium acetate. The solutions were incubated for 16 h at 4 °C before analysis. Kd were calculated as already described.

The subject of assay [2] is 24TTG (DNA, G4) TTGGGTTAGGGTTAGGGTTAGGGA
As to the kind of experiment: native ESI-MS. To be noted: 100 mM NH4+ (ammonium acetate), pH 6.8, 10 µM DNA, 20 µM ligand, first of two successive steps.

For assay [3], the system named is MCF-7. As to the kind of experiment: MTT antiproliferative assay, MCF-7. It is filed as cell-based, human. Conditions: for IC50: Homo sapiens, MCF7, 72 h, MTT, 72 h, breast cancer cells, read-out: IC50 Values (μM) ± SEM MCF-7; for Selectivity Index HEK293/MCF-7: IC50 HEK293 / IC50 MCF-7. In a few lines:
(§2)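 Cells seeded 5000/well, treated next day with compounds at 0.1–30.0 µM (six concentrations) for 72 h at 37 °C, 5% CO2 in MEM with 10% FBS. MTT added for 4 h, formazan dissolved in DMSO, absorbance read at 545 nm versus untreated controls; at least two independent runs, 5 parallel wells.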
(In general: Tetrazolium dyes change colour on reduction, which living cells bring about.)

The subject of assay [4] is c-MYC (DNA, G4) TGAGGGTGGGTAGGGTGGGTAA
As to the kind of experiment: native ESI-MS. To be noted: 100 mM NH4+ (ammonium acetate), pH 6.8, 10 µM DNA, 20 µM ligand, first of two successive steps.

For assay [5], the system named is A2780. As to the kind of experiment: MTT antiproliferative assay, A2780. Type of assay: cell-based, human. Conditions: for IC50: Homo sapiens, A2780, MTT, 72 h, ovarian cancer cells, read-out: IC50 Values (μM) ± SEM A2780; for Selectivity Index HEK293/A2780: IC50 HEK293 / IC50 A2780. The method, boiled down: as §2
The test system of assay [6] is human telomeric sequence 24TTG. As to the kind of experiment: Native electrospray mass spectrometry, 24TTG. It is filed as binding. Conditions: 10 µM DNA, 20 µM ligand; for Bound DNA (%) 24TTG: 100 mM ammonium acetate. How it is done:
as §1

Assay [7] deals with ds26 (DNA, duplex) CAATCGGATCGAATTCGATCCGATTG
As to the kind of experiment: native ESI-MS. Conditions: 100 mM NH4+ (ammonium acetate), pH 6.8, 10 µM DNA, 20 µM ligand, first of two successive steps.

The test system of assay [8] is FK-RAST. As to the kind of experiment: FRET-melting, FK-RAST. It is filed as binding. To be noted: ligand 2 μM, DNA 0.2 μM, 10 mM KCl, 90 mM LiCl, pH 7.2.
Assay [9] has as its system K562. As to the kind of experiment: MTS cell proliferation assay, K562. It is filed as cell-based, human. Conditions: for IC50: Homo sapiens, K562, 72 h, MTS, 3-day incubation, leukemia cells, read-out: IC50 Values (μM) ± SEM K562; for Selectivity Index HEK293/K562: IC50 HEK293 / IC50 K562. The method, boiled down: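 K562 cells in RPMI 1640 with 10% FCS were exposed in quadruplicate to 0, 1, 5, 10, 20 and 50 μM compound for 1, 2 and 3 days. Viability was read by MTS conversion after 3 h at 37 °C, measured at 490 nm. CC50 after 3 days was obtained by linear regression (μM ± SD).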

The test system of assay [10] is SiHa. As to the kind of experiment: MTT antiproliferative assay, SiHa. Type of assay: cell-based, human. To be noted: for IC50: Homo sapiens, SiHa, MTT, 72 h, cervical cancer cells, read-out: IC50 Values (μM) ± SEM SiHa; for Selectivity Index HEK293/SiHa: IC50 HEK293 / IC50 SiHa. In a few lines: as §2
Assay [11] concerns FBCL-2T. As to the kind of experiment: FRET-melting, FBCL-2T. Type of assay: binding. Conditions: ligand 2 μM, DNA 0.2 μM, 10 mM KCl, 90 mM LiCl, pH 7.2.
Setting [12] is: first binding event (1:1 complex), read-out: Kd1 BCL-2.
Where [13] appears, read: second binding event (2:1 complex), read-out: Kd2 BCL-2.
Setting [14] is: first binding event (1:1 complex), read-out: Kd1 24TTG.
The mark [15] stands for this setting: second binding event (2:1 complex), read-out: Kd2 24TTG.

Structures are written as SMILES. Several values for one entry are separate records, joined by “and”; a condition that tells them apart may be missing. Equal entries are not always repeated. Where two headings read alike, the source gives them in different places. Bounds are passed on as bounds.

As usually defined, the IC50 is the midpoint of a concentration-inhibition curve. For the compound `CN(C)CCCNCc1ccc(-c2nc(-c3ccc(CNCCCN(C)C)cc3)c3cc(-c4ccccc4)ccc3n2)cc1` [Compound 12b, 2,4-bis{4-[(3-dimethylaminopropyl)aminomethyl]phenyl}-6-phenylquinazoline], in [1], the “Bound DNA (%) BCL-2” value is reported as 79%. For the same compound, the Kd in assay [1] (setting [12]) stood at 5600 nM; in assay [1] (setting [13]), 2800 nM; in assay [6] (setting [14]) it was 9500 nM; in assay [6] (setting [15]) it was 1500 nM. Also, the Kd1 in [2] (Kd2 1.5, cooperative) came out at 9.5 µM; in assay [4] (Kd2 100), 5.8 µM; in assay [7] (Kd2 130), 17 µM. Besides, the IC50 in assay [3] is 0.58 ± 0.02 µM; in assay [5], 1.2 ± 0.27 µM; in [9], 14 ± 0.3 µM; in assay [10], 1.08 ± 0.1 µM. In addition, the “Selectivity Index HEK293/MCF-7” value in [3] is on record as more than 51.7. Besides, in assay [5], the “Selectivity Index HEK293/A2780” value is reported as more than 25.0. For the same compound, in assay [6], the “Bound DNA (%) 24TTG” value was 77%. The “ΔT1/2 (°C) FK-RAST” value in assay [8] came to 17.4 ± 0.6 °C. Besides, the “Selectivity Index HEK293/K562” value in [9] is given as more than 2.14. Also, in [10], the “Selectivity Index HEK293/SiHa” value was more than 27.8. Besides, the “ΔT1/2 (°C) FBCL-2T” value in assay [11] came to 8.9 ± 0.7 °C.

On to `CN(C)CCCNCc1ccc(-c2cc(-c3ccc(CNCCCN(C)C)cc3)c3cc(-c4ccccc4)ccc3n2)cc1` [Compound 13a, 2,4-bis{4-[(3-dimethylaminopropyl)aminomethyl]phenyl}-6-phenylquinoline], for which the “Bound DNA (%) BCL-2” value in assay [1] is recorded as 92%. The Kd in assay [1] (setting [12]) came out at 1600 nM; in assay [1] (setting [13]), 750 nM; in [6] (setting [14]) it was 3700 nM; in assay [6] (setting [15]), 7100 nM. In addition, the Kd1 in assay [2] (Kd2 7.1) came out at 3.7 µM; in assay [4] (Kd2 36) it was 3.8 µM; in assay [7] (Kd2 95) it was 14 µM. The 50% inhibitory concentration (IC50) was 0.54 ± 0.01 µM in [3], 0.9 ± 0.04 µM in assay [5], 10 ± 0.4 µM in [9] and 0.99 ± 0.15 µM in assay [10]. Also, the “Selectivity Index HEK293/MCF-7” value in [3] is reported as more than 55.5. Moreover, the “Selectivity Index HEK293/A2780” value in [5] is reported as more than 33.3. The “Bound DNA (%) 24TTG” value in assay [6] was found to be 81%. In addition, the “ΔT1/2 (°C) FK-RAST” value in assay [8] came to 15.0 ± 0.3 °C. Also, in assay [9], the “Selectivity Index HEK293/K562” value was more than 3.0. The “Selectivity Index HEK293/SiHa” value in [10] is on record as more than 30.3. For the same compound, in assay [11], the “ΔT1/2 (°C) FBCL-2T” value amounted to 7.7 ± 0.6 °C.

Take `CN1CCN(CCCCNCc2ccc(-c3cc(-c4ccc(CNCCCCN5CCN(C)CC5)cc4)c4cc(-c5ccccc5)ccc4n3)cc2)CC1` [Compound 13d, 2,4-bis{4-[(4-(4-methylpiperazin-1-yl)butyl)aminomethyl]phenyl}-6-phenylquinoline]: the “Bound DNA (%) BCL-2” value in assay [1] turned out to be 33%. Further, the Kd in [1] (setting [12]) turned out to be 53000 nM; in assay [1] (setting [13]) it was 20000 nM; in assay [6] (setting [14]), 29000 nM; in assay [6] (setting [15]), 83000 nM. For the same compound, the Kd1 in assay [2] (Kd2 83) came to 29 µM; in assay [4] (Kd2 440) it was 20 µM; in assay [7] (Kd2 460), 85 µM. In addition, the IC50 came to 1.62 ± 0.09 µM in [3], 2.1 ± 0.09 µM in assay [5], 14 ± 0.3 µM in assay [9] and 1.11 ± 0.37 µM in assay [10]. For the same compound, the “Bound DNA (%) 24TTG” value in assay [6] stood at 39%. Moreover, in assay [8], the “ΔT1/2 (°C) FK-RAST” value is 12.7 ± 2.2 °C. For the same compound, in assay [11], the “ΔT1/2 (°C) FBCL-2T” value was 5.0 ± 1.1 °C.

On to `CN1CCN(CCCCNCc2ccc(-c3nc(-c4ccc(CNCCCCN5CCN(C)CC5)cc4)c4cc(-c5ccccc5)ccc4n3)cc2)CC1` [Compound 12e, 2,4-bis{4-[(4-(4-methylpiperazin-1-yl)butyl)aminomethyl]phenyl}-6-phenylquinazoline], for which the “Bound DNA (%) BCL-2” value in [1] was 79%. Besides, the Kd in [1] (setting [12]) came to 6200 nM; in assay [1] (setting [13]) it was 2200 nM; in [6] (setting [14]), 14000 nM; in assay [6] (setting [15]) it was 1900 nM. For the same compound, the Kd1 in [2] (Kd2 1.9, cooperative) is 14 µM; in assay [4] (Kd2 74), 4.3 µM; in assay [7] (Kd2 280) it was 30 µM. For the same compound, the half-inhibitory concentration (IC50) came out at 1.27 ± 0.01 µM in assay [3], 2.19 ± 0.41 µM in assay [5], 13 ± 0.2 µM in assay [9] and 0.63 ± 0.05 µM in [10]. Also, the “Bound DNA (%) 24TTG” value in assay [6] is 72%. Besides, the “ΔT1/2 (°C) FK-RAST” value in assay [8] is 33.1 °C and 33.1 ± 2.1 °C. Moreover, the “ΔT1/2 (°C) FBCL-2T” value in assay [11] was 22.7 °C and 22.7 ± 0.4 °C.

The record behind these values is article PMC10819771 (Pharmaceuticals, 2023).
